Assay results: patent US9402912B2, “Antibiotic conjugates directly linked with steroid drugs” (Allergan, Inc., priority 2013, dated 2016)

Assays:
[1] = format: in vitro ADME, Dutch Belted rabbits; conditions: Dutch Belted, rabbit, 1 μM, pH 6
Description: Dutch Belted rabbits were euthanized with an overdose of sodium pentobarbital. The corneas were collected and homogenized in ice-cold potassium chloride solution (pH=7.4). The homogenate was centrifuged at 755×g for 30 min at 4° C. and aliquots of the supernatant were stored at or below −70° C. until metabolism experiments were conducted. Prior to storing the homogenates an aliquot was removed for determination of protein concentrations by calculating the 260 nm absorbance using a spectrophotometer. Human recombinant carboxylesterases were purchased from a commercial vendor (BD Gentest™, Bedford, Mass.)
All metabolic stability experiments were performed in triplicate in 96-well plate format. The final incubation mixture contained 1 μM test compound, 0.3 mg/mL corneal protein homogenate or 0.1 mg/mL human recombinant carboxylesterase mixture in a final volume of 0.5 mL 0.1M potassium phosphate buffer (pH=6.0). The final percentage of solvent in the incubation was less than 1.0% to prevent inhibition of enzymatic activity. Following a pre-incubation at 37° C., test article was added to initiate the reaction. At designated time points (typically less than 60 minutes to capture the linear range of metabolite formation), 0.05 mL aliquots were removed from the incubation mixtures using a clean pipet tip and immediately placed in organic solvent to stop any esterase activity. The hydrolysis to the metabolites was confirmed to be due to esterase activity and not chemical lability.
The samples were analyzed by liquid chromatography with mass spectrometry (LC-MS/MS) detection to determine the metabolite concentrations resulting from the metabolism of the hybrid compounds. Internal standards were used to compensate for variability from sample processing, chromatographic elution, mass spectrometer response and ion suppression by matrix components.

[2] = Ocular pharmacokinetics following a single topical ophthalmic administration in rabbits; format: in vivo, New Zealand White Rabbits; conditions: single topical ocular dose of 0.4% (w/v) solution; cornea, aqueous humor, conjunctiva, eyelid margin; FIG. 2
Description: Rabbits were dosed once by ocular instillation to both eyes with each compound formulated in a 0.4% (w/v) solution. At 0.25, 0.5, 1, 2, 6, and 10 hours post dose cornea, aqueous humor, conjunctiva and eyelid margin were collected and stored at approximately −70° C. until bioanalysis. Ocular tissue samples were analyzed by liquid chromatography with mass spectrometry (LC-MS/MS) detection to determine the parent (i.e., ester linked hybrids) and metabolite (i.e. steroid and antibiotic) concentrations resulting from the metabolism of ester linked hybrids. Internal standards were used to compensate for variability from sample processing, chromatographic elution, mass spectrometer response and ion suppression by matrix components.

| SMILES | Rate of formation Metabolite 1 (Betamethasone) [1] [nM/min/mg] | Rate of formation Metabolite 2 (Gatifloxacin) [1] [nM/min/mg] | Rate of formation Metabolite 1 (Dexamethasone) [1] [nM/min/mg] | uptake into ocular tissues and cleavage to Prednisolone and Gatifloxacin (AUC0-10hr) [2] | Rate of formation Metabolite 1 (Prednisolone) [1] [nM/min/mg] |
| --- | --- | --- | --- | --- | --- |
| COc1c(N2CCNC(C)C2)c(F)cc2c(=O)c(C(=O)OCC(=O)[C@]3(O)[C@H](C)C[C@@H]4[C@H]5CCC6=CC(=O)C=C[C@@]6(C)[C@]5(F)[C@H](O)C[C@]43C)cn(C3CC3)c12 (relative stereo) [Compound 1, 2-[(8R,9S,10R,11R,13R,14R,16R,17S)-9-fluoro-11,17-dihydroxy-10,13,16-trimethyl-3-oxo-6,7,8,9,10,11,12,13,14,15,16,17-dodecahydro-3H-cyclopenta[a]phenanthren-17-yl]-2-oxoethyl rel-1-cyclopropyl-6-fluoro-8-methoxy-7-(3-methylpiperazin-1-yl)-4-oxo-1,4-dihydroquinoline-3-carboxylate] | 7.27 ± 0.58 | 4.45 ± 0.28 |  |  |  |
| COc1c(N2CCNC(C)C2)c(F)cc2c(=O)c(C(=O)OCC(=O)[C@]3(O)[C@@H](C)C[C@@H]4[C@H]5CCC6=CC(=O)C=C[C@@]6(C)[C@]5(F)[C@H](O)C[C@]43C)cn(C3CC3)c12 (relative stereo) [Compound 7, 2-[(8R,9S,10R,11R,13R,14R,16S,17S)-9-fluoro-11,17-dihydroxy-10,13,16-trimethyl-3-oxo-6,7,8,9,10,11,12,13,14,15,16,17-dodecahydro-3H-cyclopenta[a]phenanthren-17-yl]-2-oxoethyl rel-1-cyclopropyl-6-fluoro-8-methoxy-7-(3-methylpiperazin-1-yl)-4-oxo-1,4-dihydroquinoline-3-carboxylate] |  | 4.93 ± 0.48 | 7.31 ± 0.62 |  |  |
| COc1c(N2CCNC(C)C2)c(F)cc2c(=O)c(C(=O)OCC(=O)[C@]3(O)CC[C@@H]4[C@H]5CCC6=CC(=O)C=C[C@@]6(C)[C@@H]5[C@H](O)C[C@]43C)cn(C3CC3)c12 (relative stereo) [Compound 12, 2-[(8R,9R,10S,11R,13R,14R,17S)-11,17-dihydroxy-10,13-dimethyl-3-oxo-6,7,8,9,10,11,12,13,14,15,16,17-dodecahydro-3H-cyclopenta[a]phenanthren-17-yl]-2-oxoethyl rel-1-cyclopropyl-6-fluoro-8-methoxy-7-(3-methylpiperazin-1-yl)-4-oxo-1,4-dihydroquinoline-3-carboxylate] |  | 3.46 ± 0.50 |  | taken up into rabbit ocular tissues and enzymatically hydrolyzed to the individual antibiotic and steroid | 6.02 ± 0.63 |
